Measured values: patent US20220073536A1 (Rigel Pharmaceuticals, Inc., priority 2003, published 2022)
Structures can show the parent of a compound that is named as a salt.

Assays:
[1] = tested on: cultured human mast cells (CHMC); assay: CHMC low cell density IgE activation: tryptase assay; type: cell-based; conditions: IgE activation
In short: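 Anti-IgE-driven degranulation of cultured human mast cells at low density, 1000–1500 cells/well, was induced over 30 min at 37 °C. It was scored by supernatant tryptase activity on a fluorogenic substrate.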

[2] = tested on: cultured human mast cells (CHMC); assay: CHMC low cell density ionomycin activation: tryptase assay; type: cell-based; conditions: 3 pt, read-out: LD Tryptase, CHMC, Iono, 3 pt
[3] = Homo sapiens, Mast cell, low cell density CHMC, tryptase release, 3 pt, read-out: LD Tryptase, CHMC, IgE, 3 pt
[4] = Homo sapiens, Mast cell, low cell density CHMC, tryptase release, 8 pt, read-out: LD Tryptase, CHMC, IgE, 8 pt
[5] = Homo sapiens, Mast cell, low cell density CHMC, tryptase release
[6] = Homo sapiens, Mast cell, low cell density, 3 pt, read-out: LD Tryptase, CHMC, IgE, 3 pt
[7] = Homo sapiens, Mast cell, low cell density, 8 pt, read-out: LD Tryptase, CHMC, IgE, 8 pt
[8] = Homo sapiens, Mast cell, low cell density

SMILES | IC50 [1, 3] [µM] | IC50 [1, 4] [µM] | IC50 [2, 5] [µM] | further results
COCCCn1ncc2ccc(Nc3ncc(F)c(Nc4ccc5c(c4)NC(=O)[C@H](C)O5)n3)cc21 [Compound 799, (S)-5-Fluoro-N2-[1-(3-methoxypropyl)indazol-6-yl]-N4-(2-methyl-3-oxo-2H,4H-benz[1,4]oxazin-6-yl)-2,4-pyrimidinediamine] | < 10 | < 10 | > 10 | –
CC1(C)Oc2ccc(Nc3nc(Nc4ccc5[nH]c(C(F)(F)F)nc5c4)ncc3F)cc2NC1=O [Compound 802, N4-(2,2-Dimethyl-3-oxo-4H-benz[1,4]oxazin-6-yl)-5-fluoro-N2-(2-trifluoromethyl-1H-benzimidazol-5-yl)-2,4-pyrimidinediamine] | < 10 | < 10 | > 10 | –
C[C@@H]1Oc2ccc(Nc3nc(Nc4ccc5[nH]c(C(F)(F)F)nc5c4)ncc3F)cc2NC1=O [Compound 803, (S)-5-Fluoro-N4-(2-methyl-3-oxo-2H,4H-benz[1,4]oxazin-6-yl)-N2-(2-trifluoromethyl-1H-benzimidazol-5-yl)-2,4-pyrimidinediamine] | < 10 | < 10 | > 10 | –
Cc1nc2ccc(Nc3ncc(F)c(Nc4ccc5c(c4)NC(=O)[C@H](C)O5)n3)cc2[nH]1 [Compound 811, (S)-5-Fluoro-N2-(2-methyl-3H-benzimidazol-5-yl)-N4-(2-methyl-3-oxo-2H,4H-benz[1,4]oxazin-6-yl)-2,4-pyrimidinediamine] | < 10 | < 10 | > 10 | –
COc1ccc(Nc2nc(Nc3ccc4c(cnn4CCCO)c3)ncc2F)cc1Cl [Compound 827, N4-(3-Chloro-4-methoxyphenyl)-5-fluoro-N2-[1-(3-hydroxypropyl)indazol-5-yl]-2,4-pyrimidinediamine p-Toluenesulfonic Acid Salt] | < 10 | – | > 10 | –
COc1ccc(Nc2nc(Nc3ccc4c(cnn4CCCNS(C)(=O)=O)c3)ncc2F)cc1Cl [Compound 832, N4-(3-Chloro-4-methoxyphenyl)-5-fluoro-N2-[1-[3-(N-methylsulfonylamino)propyl]indazol-5-yl]-2,4-pyrimidinediamine] | < 10 | < 10 | > 10 | –
CS(=O)(=O)NCCCn1ncc2cc(Nc3ncc(F)c(Nc4ccc(Cl)c(Cl)c4)n3)ccc21 [Compound 833, N4-(3,4-Dichlorophenyl)-5-fluoro-N2-[1-[3-(N-methylsulfonylamino)propyl]indazol-5-yl]-2,4-pyrimidinediamine] | < 10 | < 10 | > 10 | –
CC1(C)Oc2ccc(Nc3nc(Nc4ccc5c(cnn5CCCNS(C)(=O)=O)c4)ncc3F)cc2NC1=O [Compound 834, N4-(2,2-Dimethyl-3-oxo-4H-benz[1,4]oxazin-6-yl)-5-fluoro-N2-[1-[3-(N-methylsulfonylamino)propyl]indazol-5-yl]-2,4-pyrimidinediamine] | > 10 | < 10 | > 10 | –
C[C@@H]1Oc2ccc(Nc3nc(Nc4ccc5c(cnn5CCCNS(C)(=O)=O)c4)ncc3F)cc2NC1=O [Compound 835, (S)-5-Fluoro-N4-(2-methyl-3-oxo-2H,4H-benz[1,4]oxazin-6-yl)-N2-[1-(3-(N-methylsulfonylamino)propyl)indazol-5-yl]-2,4-pyrimidinediamine] | < 10 | < 10 | > 10 | –
CC1(C)Oc2ccc(Nc3nc(Nc4ccc5c(cnn5CCCNS(C)(=O)=O)c4)ncc3F)nc2NC1=O [Compound 836, N4-(2,2-Dimethyl-3-oxo-4H-5-pyrid[1,4]oxazin-6-yl)-5-fluoro-N2-[1-[3-(N-methylsulfonylamino)propyl]indazol-5-yl]-2,4-pyrimidinediamine] | – | – | – | IC50 ([1]; low cell density CHMC, tryptase release, 3 pt, read-out: LD Tryptase, CHMC, IgE, 3 pt): < 10 µM; IC50 ([1]; low cell density CHMC, tryptase release, 8 pt, read-out: LD Tryptase, CHMC, IgE, 8 pt): < 10 µM; IC50 ([2]; low cell density CHMC, tryptase release): > 10 µM
Cn1ncc2ccc(Nc3ncc(F)c(Nc4ccc5c(c4)NC(=O)C(C)(C)O5)n3)cc21 [Compound 993, N4-(2,2-Dimethyl-3-oxo-4H-benz[1,4]oxazin-6-yl)-5-fluoro-N2-(1-methylindazol-6-yl)-2,4-pyrimidinediamine p-Toluenesulfonic Acid Salt] | – | – | – | IC50 [1, 6]: < 10 µM; IC50 [1, 7]: < 10 µM; IC50 [2, 8]: < 10 µM
Cc1cc(Nc2ncc(F)c(Nc3ccc4c(c3)OCCO4)n2)cc(Cl)c1O [Compound 995, N2-(3-Chloro-4-hydroxy-5-methylphenyl)-N4-(3,4-ethylenedioxyphenyl)-5-fluoro-2,4-pyrimidinediamine] | – | – | – | IC50 [1, 6]: < 10 µM; IC50 [1, 7]: < 10 µM; IC50 [2, 8]: < 10 µM
Cc1cc(Nc2ncc(F)c(Nc3ccc4c(n3)NC(=O)C(C)(C)O4)n2)cc(Cl)c1O [Compound 996, N2-(3-Chloro-4-hydroxy-5-methylphenyl)-N4-(2,2-dimethyl-3-oxo-4H-5-pyrid[1,4]oxazin-6-yl)-5-fluoro-2,4-pyrimidinediamine] | – | – | – | IC50 ([1]; low cell density, 3 pt, read-out: LD Tryptase, CHMC, IgE, 3 pt): < 10 µM; IC50 ([1]; low cell density, 8 pt, read-out: LD Tryptase, CHMC, IgE, 8 pt): < 10 µM; IC50 ([2]; low cell density): > 10 µM
COc1c(C)cc(Nc2ncc(F)c(Nc3ccc4c(n3)NC(=O)C(C)(C)O4)n2)cc1C [Compound 997, N2-(3,5-Dimethyl-4-methoxyphenyl)-N4-(2,2-dimethyl-3-oxo-4H-5-pyrid[1,4]oxazin-6-yl)-5-fluoro-2,4-pyrimidinediamine] | – | – | – | IC50 [1, 6]: < 10 µM; IC50 [1, 7]: < 10 µM; IC50 [2, 8]: > 10 µM
COc1c(C)cc(Nc2ncc(F)c(Nc3ccc4c(c3)OCCO4)n2)cc1C [Compound 998] | – | – | – | IC50 [1, 6]: < 10 µM; IC50 [1, 7]: < 10 µM; IC50 [2, 8]: > 10 µM
COc1c(C)cc(Nc2ncc(F)c(Nc3ccc4c(c3)OCCO4)n2)cc1Cl [Compound 999] | – | – | – | IC50 [1, 6]: < 10 µM; IC50 [1, 7]: < 10 µM; IC50 [2, 8]: < 10 µM

Further lines, with some results ahead:

IC50 [1, 3] [µM] | IC50 [1, 4] [µM] | IC50 [2, 5] [µM] | SMILES | further results
< 10 | < 10 | > 10 | CC(=O)OCCCn1ncc2ccc(Nc3ncc(F)c(Nc4ccc(Cl)c(Cl)c4)n3)cc21 [Compound 790, N2-[1-(3-Acetyloxypropyl)indazol-6-yl]-N4-(3,4-dichlorophenyl)-5-fluoro-2,4-pyrimidinediamine] | –
< 10 | < 10 | > 10 | CC1(C)Oc2ccc(Nc3nc(Nc4ccc5cnn(CCCO)c5c4)ncc3F)cc2NC1=O [Compound 791, N4-(2,2-Dimethyl-3-oxo-4H-benz[1,4]oxazin-6-yl)-5-fluoro-N2-[1-(3-hydroxypropyl)indazol-6-yl]-2,4-pyrimidinediamine] | –
< 10 | < 10 | > 10 | COCCCn1ncc2cc(Nc3ncc(F)c(Nc4ccc(Cl)c(Cl)c4)n3)ccc21 [Compound 793, N4-(3,4-Dichlorophenyl)-5-fluoro-N2-[1-(3-methoxypropyl)indazol-5-yl]-2,4-pyrimidinediamine] | –
< 10 | < 10 | > 10 | COCCCn1ncc2cc(Nc3ncc(F)c(Nc4ccc5c(c4)NC(=O)C(C)(C)O5)n3)ccc21 [Compound 794, N4-(2,2-Dimethyl-3-oxo-4H-benz[1,4]oxazin-6-yl)-5-fluoro-N2-[1-(3-methoxypropyl)indazol-5-yl]-2,4-pyrimidinediamine] | –
< 10 | < 10 | > 10 | COCCCn1ncc2cc(Nc3ncc(F)c(Nc4ccc5c(c4)NC(=O)[C@H](C)O5)n3)ccc21 [Compound 795, (S)-5-Fluoro-N2-[1-(3-methoxypropyl)indazol-5-yl]-N4-(2-methyl-3-oxo-2H,4H-benz[1,4]oxazin-6-yl)-2,4-pyrimidinediamine] | –
< 10 | < 10 | > 10 | COCCCn1ncc2ccc(Nc3ncc(F)c(Nc4ccc(OC)c(Cl)c4)n3)cc21 [Compound 796, N4-(3-Chloro-4-methoxyphenyl)-5-fluoro-N2-[1-(3-methoxypropyl)indazol-6-yl]-2,4-pyrimidinediamine] | –
< 10 | < 10 | > 10 | COCCCn1ncc2ccc(Nc3ncc(F)c(Nc4ccc(Cl)c(Cl)c4)n3)cc21 [Compound 797, N4-(3,4-Dichlorophenyl)-5-fluoro-N2-[1-(3-methoxypropyl)indazol-6-yl]-2,4-pyrimidinediamine] | –
< 10 | < 10 | < 10 | COCCCn1ncc2ccc(Nc3ncc(F)c(Nc4ccc5c(c4)NC(=O)C(C)(C)O5)n3)cc21 [Compound 798, N4-(2,2-Dimethyl-3-oxo-4H-benz[1,4]oxazin-6-yl)-5-fluoro-N2-[1-(3-methoxypropyl)indazol-6-yl]-2,4-pyrimidinediamine] | –
– | < 10 | < 10 | Cc1nc2ccc(Nc3ncc(F)c(Nc4ccc5c(n4)NC(=O)C(C)(C)O5)n3)cc2[nH]1 [Compound 845, N4-(2,2-Dimethyl-3-oxo-4H-5-pyrid[1,4]oxazin-6-yl)-5-fluoro-N2-(2-methyl-3H-benzimidazol-5-yl)-2,4-pyrimidinediamine] | –
– | < 10 | < 10 | CC1(C)Oc2ccc(Nc3nc(Nc4ccc5[nH]c(C(F)(F)F)nc5c4)ncc3F)nc2NC1=O [Compound 846, N4-(2,2-Dimethyl-3-oxo-4H-5-pyrid[1,4]oxazin-6-yl)-5-fluoro-N2-(2-trifluoromethyl-1H-benzimidazol-5-yl)-2,4-pyrimidinediamine] | –
